Assay results published in patent US12351819B2, “Method for removing undifferentiated pluripotent stem cells” (priority 2017, dated 2025).

What was measured:
[1] = tested on: hESC-hepatocyte endoderm cells; test: LDH cytotoxicity assay in hESC-derived hepatocyte endoderm; type: cell-based, human; conditions: Table 1
Description: This protocol followed a method previously published in Nature Protocols^36. The hESCs were detached by 0.5 mM EDTA (Life Technologies, Camarillo, C, USA), seeded on VTN-N coated culture plates (Corning) and maintained for 48 hours in mTeSR 1 medium. Then, the medium was refreshed daily for all following steps. On days 1-2, the medium was replaced with fresh CDM-PVA (consisting of 0.5 g of PVA (Sigma) dissolved in 250 ml of IMDM/F-12, GlutaMAX (Invitrogen), 250 ml of IMDM (Invitrogen), 5 ml of chemically defined lipid concentrate (Invitrogen), 20 of thioglycerol 97% (Sigma), 350 of insulin (10 mg/ml; Roche), 250 of transferrin (30 mg/ml; Roche) plus Activin A (100 ng/ml; R&D), bFGF (80 ng/ml; R&D), BMP4 (10 ng/ml; R&D), and […] of LY-294002 (Promega). On day 3, the cells were differentiated in RPMI Medium supplemented with Activin A (100 ng/ml) and bFGF (80 ng/ml). On days 4-6, the cells were expanded in RPMI medium supplemented with Activin A (50 ng/ml). On day 7, the cells were passaged and re-plated 105,000 cells/cm^2 cells in VTN-N coated culture plates in RPMI containing Activin A (50 ng/ml) and Y-27632 2HCl (10 μM Selleck-chem, Houston, TX, USA and Munich, Germany). Then, the cells were maintained in RPMI+Activin A (50 ng/ml) on days 8-11. The cells were differentiated into the hepatocyte endoderm and analyzed following the drug treatments. The expression of alpha-fetoprotein (A0008, Dako, Santa Clara, CA, USA) was analyzed in the hepatocyte endoderm via immunofluorescence staining.

hBMMSCs [2] = test: Osteogenic differentiation and Alizarin Red S staining; type: cell-based, human; conditions: 2.5 μM 24 hours, drug removed; Alizarin Red S O.D 570 nm
Description: Drugs were removed, and the cells were washed with PBS and cultured in MSCgo™ Osteogenic Differentiation medium (Biological Industries, Kibbutz Beit-Haemek, Israel)^31. The media changed twice per week for 14-21 days. Next, the cells were fixed with ice-cold 70% ethanol at −20° C. for 1 hour. After washing with water for three times, the cells were then stained with 40 mM Alizarin Red S (ARS) (pH 4.2) at room temperature for 10 minutes. The cells were then washed with PBS for five times. An Olympus CK-40 microscope was used to take the images. For quantification, the dye was extracted with 10% (w/v) cetylpyridinium chloride (Sigma 0732) in sodium phosphate buffer (pH 7.0) for 15 minutes, and the O.D. at 570 nm was measured.

hESCs [3] = test: PI/Annexin V flow cytometry cell death assay, hESCs; type: cell-based, human; conditions: 24 hours; FIG. 2A: 1.25 μM digoxin, 2.5 μM lanatoside C
Description: For cell death assay, Propidium iodine/Annexin V assay was performed according to the manufacturer's instruction (Alexa Fluor® 488 Annexin V/Dead Cell Apoptosis Kit; Life Technologies). In brief, live cells were dissociated with trypsin and incubated with Annexin V antibody and PI working solution for 15 minutes. We added 400 μl 1× annexin binding buffer and analyzed the stained cells by FACSCanto™ (Becton Dickinson, Franklin Lakes, NJ, USA). For analyzing the phenotypic signature of MSCs we used a Stemflow™ hMSC analysis kit (BD Biosciences) and FACSCanto™. All flow data was analyzed by FACSDivam software (BD Biosciences) and FlowJo™ (FlowJo, LLC, Ashland, USA).

hESCs [4] = test: Cell colony and morphology under bright field, hESCs; type: cell-based, human; conditions: 2.5 μM, 12 hours and 24 hours
Description: Scale bar: 500 μm. […] The samples were normalized to the DMSO-treated hESCs. ***P<0.001; **P<0.01; n.s. not significant. Data are shown as the mean SD.
We investigated whether cardiac glycosides affected the viability of hESCs or other cell types. First, we treated undifferentiated hESCs with digoxin and lanatoside C for 12 hours and 24 hours, respectively. […] To investigate the cytotoxic effect of the cardiac glycosides, we measured the release of LDH in the culture supernatants after the hESCs were treated with digoxin or Lanatoside C for 24 hours (FIG. 1C).

H9 hESC-MSCs = test: Cell morphology under bright field, H9 hESC-MSCs; type: cell-based, human; conditions: 2.5 μM, 12 hours and 24 hours
hBMMSCs [5] = test: Adipogenesis and Oil Red O assay; type: cell-based, human; conditions: 2.5 μM 24 hours, drug removed; oil red O.D 510 nm
Description: Next, drugs were removed, and the cells were cultured in MSCgo™ Adipogenic Differentiation Medium (Biological Industries). The media was changed every 3-4 days for 8-12 days. After the adipogenic induction, we replaced the MSCgo™ Adipogenic complete medium with MSC maintenance medium for 6-9 days. The cells were carefully fixed with 4% formaldehyde for 1 hour at room temperature, washed with 60% isopropanol, and air-dried. The lipid drops were stained with Oil Red O working solution (30 ml 0.35% oil red solution in isopropanol diluted with 20 ml of distilled water) for 10 minutes. Next, the cells were washed with water 4 times. For quantification, Oil Red O stain was extracted with 100% isopropanol, and the absorbance at 510 nm was detected.

[6] = tested on: mixture of hESCs and GFP-overexpressing hBMMSCs; test: Kidney capsule transplantation of treated hESCs and hBMMSCs; type: in vivo; conditions: drug-treated hESCs and hBMMSCs under the kidney capsule, NSG mice, five weeks
Description: The 293T cells were seeded with 10^6 cells in 6-well plates for the generation of the lentivirus. After 24 hours, the 293T cells were transfected with 1 μg of pLKO_AS3w.eGFP.bsd, 0.9 μg of pCMVR8.91, and 0.1 μg of pMD.G (National RNAi Core Facility, Taipei, Taiwan) via the TurboFect transfection reagent (Thermo Fisher Scientific). At 24 hours after the transfection, the medium was refreshed with the virus harvest medium, which contained HG-DMEM, 10% FBS and 1% BSA. The hBMMSCs were seeded in 6-well plates and later incubated with the lentivirus (multiplicity of infection=10) for one day. The cells were selected with 10 μg/ml blasticidin (Thermo Fisher Scientific) the following day. The GFP overexpressing hBMMSCs were then isolated using a cell sorter (FACS Aria™ II, BD Biosciences) and cultured in a medium containing 10 μg/ml blasticidin for the following experiments.
Mixtures of approximately 8×10^5 hESCs and 8×10^5 hBMMSCs were injected under the kidney capsules into 6-week-old male NSG mice. Five weeks after the transplantation, the animals were sacrificed, and the tissues were removed, fixed in 10% formalin, embedded in paraffin, stained with H&E or were subjected to IHC staining. The staining protocols were described in the materials and method section. Chicken anti-GFP (ab 13970, Abcam, Cambridge, MA, USA) antibody was used for the GFP overexpressing hBMMSCs IHC staining.

SMILES	LDH assay positive, hepatocyte endoderm cells [1]	differentiation ability of hBMMSCs into osteoblasts (hBMMSCs [2])	cell death (PI/Annexin V) in hESCs (hESCs [3]) [%]	cell death (bright field morphology) in hESCs (hESCs [4])	cell death (bright field morphology) in H9 hESC-MSCs (H9 hESC-MSCs)	differentiation ability of hBMMSCs into adipocytes (hBMMSCs [5])	tumor area of kidney tissue [6]
CC(=O)O[C@H]1C[C@H](O[C@H]2[C@@H](O)C[C@H](O[C@H]3[C@@H](O)C[C@H](O[C@H]4CC[C@@]5(C)[C@H](CC[C@@H]6[C@@H]5C[C@@H](O)[C@]5(C)[C@@H](C7=CC(=O)OC7)CC[C@]65O)C4)O[C@@H]3C)O[C@@H]2C)O[C@H](C)[C@H]1O[C@@H]1O[C@H](CO)[C@@H](O)[C@H](O)[C@H]1O [Lanatoside C, lanatoside C]	−/+ (10% positive cells)	neither digoxin nor lanatoside C affected the differentiation ability	82	induced dramatic cell death	Neither digoxin (2.5 μM) nor lanatoside C (2.5 μM) induced cell death	neither digoxin nor lanatoside C affected the differentiation ability	significantly inhibited
C[C@H]1O[C@@H](O[C@H]2[C@@H](O)C[C@H](O[C@H]3[C@@H](O)C[C@H](O[C@H]4CC[C@@]5(C)[C@H](CC[C@@H]6[C@@H]5C[C@@H](O)[C@]5(C)[C@@H](C7=CC(=O)OC7)CC[C@]65O)C4)O[C@@H]3C)O[C@@H]2C)C[C@H](O)[C@@H]1O [Digoxin, digoxin]	−/+ (10% positive cells)	neither digoxin nor lanatoside C affected the differentiation ability	70	induced dramatic cell death	Neither digoxin (2.5 μM) nor lanatoside C (2.5 μM) induced cell death	neither digoxin nor lanatoside C affected the differentiation ability	significantly inhibited
